Reference: patent EP4563146A1 (IRBM S.P.A., priority 2023, dated 2025)
Like-named read-outs stand apart in the source and are kept apart here.

Key:
ZIKV replicon = test: ZIKV replication inhibition assay (NanoLuc replicon in Vero cells); conditions: 72 h, read-out: ZIKA Cell_Nanoluc
[1] = molecular target: Japanese encephalitis virus (JEV)-NS2B-NS3 protease (Japanese encephalitis virus, UniProt P32886, DEL1469-1493); test: JEV protease inhibition assay; type: biochemical
[2] = molecular target: T1, West Nile Virus (WNV) NS2B-NS3 protease (West Nile virus, UniProt Q9Q6P4); test: WNV protease inhibition assay; type: biochemical; conditions: Table 4; letter codes for IC50
T1 construct: NS2B1423-1470); purchased R&D 2907-SE-020
Excerpt: WNV protease inhibition assay

[3] = read-out: JEV - NS3 protease, 600 nM enzyme, 10 µM Pyr-RTKR-AMC substrate, 25 °C

Work on `COc1ncc(-c2ccc(C[n+]3cc([N-]C(=O)Nc4cc(NC(=O)c5ccccc5)cc(C(F)(F)F)c4)on3)cc2)c(C)n1` [Example 15] yielded an EC50 (ZIKV replicon; Zika virus, Vero) of 0.1 to 1 µM and an IC50 [1, 3] of 1 to 20 µM.
`COc1ncc(-c2ccc(C[n+]3cc([N-]C(=O)Nc4cc(NC(=O)Cc5ccc(Cl)cc5)cc(C(F)(F)F)c4)on3)cc2)c(C)n1` [Example 17] was tested, and the EC50 (ZIKV replicon; Zika virus, Vero) was 1 to 20 µM and the IC50 [1, 3] was greater than 20 µM.
`COc1ncc(-c2ccc(C[n+]3cc([N-]C(=O)Nc4cc(NC(=O)Cc5noc6ccccc56)cc(C(F)(F)F)c4)on3)cc2)c(C)n1` [Example 20] gave an EC50 (ZIKV replicon; Zika virus, Vero) greater than 20 µM and an IC50 [1, 3] greater than 20 µM.
`COc1ncc(-c2ccc(C[n+]3cc([N-]C(=O)Nc4cc(NC(=O)Cc5ccc(CN)cc5)cc(C(F)(F)F)c4)on3)cc2)c(C)n1` [Example 22] showed an EC50 (ZIKV replicon; Zika virus, Vero) of 1 to 20 µM and an IC50 [1, 3] greater than 20 µM.
`N[C@H]1C[C@H]([n+]2cc([N-]C(=O)Nc3cc(NC(=O)Cc4ccccc4)cc(C(F)(F)F)c3)on2)C1` [Example 26, (3-((1R,3R)-3-Aminocyclobutyl)-1,2,3-oxadiazol-3-ium-5-yl)((3-(2-phenylacetamido)-5-(trifluoromethyl)phenyl)carbamoyl)amide] was tested, and the EC50 (ZIKV replicon; Zika virus, Vero) was greater than 20 µM and the IC50 [1] was 1 to 20 µM.
Compound `CN(C)[C@H]1C[C@H]([n+]2cc([N-]C(=O)Nc3cc(NC(=O)Cc4ccccc4)cc(C(F)(F)F)c3)on2)C1` [Example 55, (3-((1R3R)-3-(Dimethylamino)cyclobutyl)-1,2,3-oxadiazol-3-ium-5-yl)((3-(2-phenyl-acetamido)-5-(trifluoromethyl)phenyl)-carbamoyl)amide] has an EC50 (ZIKV replicon; Zika virus, Vero) of 1 to 20 µM and an IC50 [1] of 1 to 20 µM.
`NC[C@H]1CC[C@@H]([n+]2cc([N-]C(=O)Nc3cc(NC(=O)Cc4ccccc4)cc(C(F)(F)F)c3)on2)CC1` [Example 59, (3-((1S,4S)-4-(Aminomethyl)cyclohexyl)-1,2,3-oxadiazol-3-ium-5-yl)((3-(2-phenyl-acetamido)-5-(trifluoromethyl)phenyl)-carbamoyl)amide] gave an EC50 (ZIKV replicon; Zika virus, Vero) of 1 to 20 µM and an IC50 [1] of 1 to 20 µM.
Compound `O=C(Cc1ccccc1)Nc1cc(NC(=O)[N-]c2c[n+]([C@H]3CC[C@@H](CN4C(=O)c5ccccc5C4=O)CC3)no2)cc(C(F)(F)F)c1` [Example 60, (3-((1S,4S)-4-((1,3-Dioxoisoindolin-2-yl)methyl)cyclohexyl)-1,2,3-oxadiazol-3-ium-5-yl)((3-(2-phenylacetamido)-5-(trifluoromethyl)-phenyl)carbamoyl)amide] has an EC50 (ZIKV replicon; Zika virus, Vero) of 1 to 20 µM and an IC50 [1] of 1 to 20 µM.
For `CN(C)C[C@H]1CC[C@@H]([n+]2cc([N-]C(=O)Nc3cc(NC(=O)Cc4ccccc4)cc(C(F)(F)F)c3)on2)CC1` [Example 61, (3-((1S,4S)- -4-((Dimethylamino)methyl)cyclohexyl)-1,2,3-oxadiazol-3-ium-5-yl)((3-(2-phenylacetamido)-5-(trifluoromethyl)phenyl)carbamoyl)amide], the EC50 (ZIKV replicon; Zika virus, Vero) was 1 to 20 µM and the IC50 [1] was 1 to 20 µM.
`CC(=O)NC[C@H]1CC[C@@H]([n+]2cc([N-]C(=O)Nc3cc(NC(=O)Cc4ccccc4)cc(C(F)(F)F)c3)on2)CC1` [Example 62, (3-((1S,4S)-4-(Acetamidomethyl)cyclohexyl)-1,2,3-oxadiazol-3-ium-5-yl)((3-(2-phenylacetamido)-5-(trifluoromethyl)phenyl)carbamoyl)amide] gave an EC50 (ZIKV replicon; Zika virus, Vero) greater than 20 µM and an IC50 [1] of 1 to 20 µM.
`N[C@H]1CC[C@@H]([n+]2cc([N-]C(=O)Nc3cc(NC(=O)Cc4ccccc4)cc(C(F)(F)F)c3)on2)CC1` [Example 91, (3-((1S,4S)-4-Aminocyclohexyl)-1,2,3-oxadiazol-3-ium-5-yl)((3-(2-phenylacetamido)-5-(trifluoromethyl)phenyl)carbamoyl)amide] was tested, and the EC50 (ZIKV replicon; Zika virus, Vero) was greater than 20 µM and the IC50 [1] was 1 to 20 µM.
Work on `N[C@H]1CC[C@H]([n+]2cc([N-]C(=O)Nc3cc(NC(=O)Cc4ccccc4)cc(C(F)(F)F)c3)on2)CC1` [Example 92, (3-((1R,4R)-4-Aminocyclohexyl)-1,2,3-oxadiazol-3-ium-5-yl)((3-(2-phenylacetamido)-5-(trifluoromethyl)phenyl)carbamoyl)amide] yielded an EC50 (ZIKV replicon; Zika virus, Vero) greater than 20 µM and an IC50 [1] of 1 to 20 µM.
`NC[C@H]1CC[C@H]([n+]2cc([N-]C(=O)Nc3cc(NC(=O)Cc4ccccc4)cc(C(F)(F)F)c3)on2)CC1` [Example 93, (3-((1R,4R)-4-(Aminomethyl)cyclohexyl)-1,2,3-oxadiazol-3-ium-5-yl)((3-(2-phenyl-acetamido)-5-(trifluoromethyl)phenyl)-carbamoyl)amide] showed an EC50 (ZIKV replicon; Zika virus, Vero) of 1 to 20 µM and an IC50 [1] of 0.1 to 1 µM.
Compound `CN(C)C[C@H]1CC[C@H]([n+]2cc([N-]C(=O)Nc3cc(NC(=O)Cc4ccccc4)cc(C(F)(F)F)c3)on2)CC1` [Example 94, (3-((1R,4R)-4-((Dimethylamino)methyl)-cyclohexyl)-1,2,3-oxadiazol-3-ium-5-yl)((3-(2-phenylacetamido)-5-(trifluoromethyl)phenyl)-carbamoyl)amide] has an IC50 [1, 3] of 1 to 20 µM.
Compound `CN(C)[C@H]1CC[C@@H]([n+]2cc([N-]C(=O)Nc3cc(NC(=O)Cc4ccccc4)cc(C(F)(F)F)c3)on2)CC1` [Example 95, (3-((1S,4S)-4-(Dimethylamino)cyclohexyl)-1,2,3-oxadiazol-3-ium-5-yl)((3-(2-phenylacetamido)-5-(trifluoromethyl)phenyl)-carbamoyl)amide] has an EC50 (ZIKV replicon; Zika virus, Vero) of 1 to 20 µM and an IC50 [1] of 1 to 20 µM.
`CN(C)[C@H]1CC[C@H]([n+]2cc([N-]C(=O)Nc3cc(NC(=O)Cc4ccccc4)cc(C(F)(F)F)c3)on2)CC1` [Example 96, (3-((1R,4R)-4-(dimethylamino)cyclohexyl)-1,2,3-oxadiazol-3-ium-5-yl)((3-(2-phenylacetamido)-5-(trifluoromethyl)phenyl)-carbamoyl)amide] was tested, and the EC50 (ZIKV replicon; Zika virus, Vero) was 1 to 20 µM and the IC50 [1] was 1 to 20 µM.
With `NC[C@H]1CC[C@@H]([n+]2cc([N-]C(=O)Nc3cc(N4CCC(c5ccccc5)C4=O)cc(C(F)(F)F)c3)on2)CC1` (stereo partly drawn) [Example 119, (3-((1S,4S)-4-(Aminomethyl)cyclohexyl)-1,2,3-oxadiazol-3-ium-5-yl)((3-(2-oxo-3-phenylpyrrolidin-1-yl)-5-(trifluoromethyl)phenyl)-carbamoyl)amide] the EC50 (ZIKV replicon; Zika virus, Vero) was 1 to 20 µM and the IC50 [1] was 1 to 20 µM.
Work on `O=C([N-]c1c[n+]([C@H]2CC[C@@H](CNCC(F)(F)F)CC2)no1)Nc1cc(N2CCC(c3ccccc3)C2=O)cc(C(F)(F)F)c1` (stereo partly drawn) [Example 135, ((3-(2-Oxo-3-phenylpyrrolidin-1-yl)-5-(trifluoromethyl)phenyl)carbamoyl)(3-((1S,4S)-4-(((2,2,2-trifluoroethyl)amino)methyl)-cyclohexyl)-1,2,3-oxadiazol-3-ium-5-yl)amide] yielded an EC50 (ZIKV replicon; Zika virus, Vero) of 1 to 20 µM and an IC50 [1] greater than 20 µM.
With `CN(C)C[C@H]1CC[C@@H]([n+]2cc([N-]C(=O)Nc3cc(N4CCC(c5ccccc5)C4=O)cc(C(F)(F)F)c3)on2)CC1` (stereo partly drawn) [Example 138, (3-((1S,4S)-4-((Dimethylamino)methyl)-cyclohexyl)-1,2,3-oxadiazol-3-ium-5-yl)((3-(2-oxo-3-phenylpyrrolidin-1-yl)-5-(trifluoromethyl)-phenyl)carbamoyl)amide] the EC50 (ZIKV replicon; Zika virus, Vero) was 1 to 20 µM and the IC50 [1] was 1 to 20 µM.
Work on “((3-(2-(3-(Carboxymethyl)phenyl)acetamido)-5-(trifluoromethyl)phenyl)carbamoyl)(3-((1R,4R)-4-((dimethylamino)methyl)cyclohexyl)-1,2,3-oxadiazol-3-ium-5-yl)amide [Example 155]” yielded an EC50 (ZIKV replicon; Vero cells with stable ZIKV replicon, Nano-Glo readout) of 1 to 20 µM and an IC50 [2] of 0.1 to 1 µM.
